Measured values taken from patent publication US20200129922A1, “METHOD OF REDUCING CONCENTRATION OF FLUORINE-CONTAINING COMPOUND IN SAMPLE” (Samsung Electronics Co., Ltd., priority 2018, published 2020).

Key:
[1] = at 30° C.; cited from earlier work
[2] = Confirmation of solubility of CF4 for phosphonium ionic liquid (headspace CF4 by GC-MS); type: physicochemical; settings: 5 ml ionic liquid in 60 ml serum bottle, 200 ppm CF4 in upper empty space, 24 hours shaking; control distilled water
Experimental: 5 ml of a phosphonium ionic liquid was put in a 60 ml glass serum bottle, and CF4 was supplied to the upper empty space at a concentration of 200 ppm based on the volume of the empty space. After air-tightening by closing a lid, the bottle was incubated for 24 hours under shaking. Then, the air in the upper empty space was collected, and a concentration of CF4 was measured using gas chromatography mass-spectrum (GC-MS). Distilled water of the same volume was used as a control group.
The CF4 removal rates in Tables 1 and 2 were calculated from the following Mathematical Equation 1:
CF4 removal rate=[(initial CF4 content−CF4 content after reaction)/initial CF4 content]×100 <Mathematical Equation 1>

FC(F)(F)F [CF4]
solubility of CF4 in water [1]: 17.1 µg/mL

triethyl octyl phosphonium bis(trifluoromethylsulfonyl)imide [[P2228]^+ [NTf2]^−]
CF4 reduction rate (%) [2]: 13.9%

trihexyl tetradecyl phosphonium bis(trifluoromethylsulfonyl)imide [[P66614]^+ [NTf2]^−]
CF4 reduction rate (%) [2]: 10.9%
